System: hyperphosphorylated 3RTau
Test: Tau protein retinal staining: colocalization of Compound 5 with 3RTau antibody in retinal sections (confocal fluorescence)
Format: binding, mice
Conditions: for Pearson correlation coefficient (PCC) of colocalization with 3RTau antibody: Image J analysis, -1=complete anti-colocalization, 0=non colocalization, 1=complete colocalization
Description: Retinas of different age of three-repeat tau (“3RTau”) mice (3 months, 6 months and 12 months) were mounted on slides. The retina were washed with PBS 2 times for 5 minutes. A solution of 98% formic acid was added—5 minutes for antigen retrieval. The sampled were washed with distilled water—2 times for 5 minutes. The samples were equilibrated in 1×PBS for 15 minutes, then blocked with 10% goat/donkey serum in 1×PBST (depending on antibodies) for 1 hour. The samples were then incubated with three-repeat tau antibody in 10% goat serum in 1×PBST at 4 degree C. overnight, then rinsed with 1×PBST 3 times for 5 minutes each. Samples were incubated with secondary antibody (Alexa Fluor 568 Anti mouse) in 1×PBST for 1 hour, then covered with foil, then rinsed with 1×PBST 3 times for 5 minutes each. Samples were stained with Compound 5 working solution for 30 minutes at room temperature, covered in foil, and washed with 1×PBS 3 times for 5 minutes each. Samples were stained with DAPI (300 nM or 100 ng/mL) in dark for 10 minutes, then tissues were washed 3×10 minutes with PBS. Antifade DAKO mounting medium was added, and coverslip and kept under foil until imaging. Images were obtained using a Leica confocal microscope.
Fluorescent imaging study was conducted on a Leica DMI 4000B microscope (Leica, Germany) equipped with a TCS SPE camera and Leica 10, 20 and 40× objectives. The following lasers were used to visualize fluorescent probes pertaining to DAPI (blue, nuclear stain), Compound 5 (green) and 3RTau (red): 408, 488 and 568 nm. Z-stacked images were taken at 40× at 0.5 μm increments to visualize the entire thickness of the tissue.

N#C/C(=C\c1ccc2cc(N3CCCCC3)ccc2c1)C(=O)NCC(O)CO (stereo not drawn) [Compound 5]
Pearson correlation coefficient (PCC) of colocalization with 3RTau antibody (3RTau mouse retinal section): 0.67 | colocalization with 3Rtau immunoreactivity in retina (immunostaining) (3RTau transgenic mice retina, 3, 6 and 12 months): colocalizes | Pearson correlation coefficient (PCC) of colocalization with 3RTau antibody (control mouse retinal section): 0.04

— US20220370642A1, “METHODS OF DETECTING NEUROLOGICAL DISORDERS VIA BINDING TO PHOSPHORYLATED TAU PROTEIN” (Amydis, Inc., priority 2019, published 2022)
